Experimental data taken from patent publication US6248586A, “Antisense modulation of PKA catalytic subunit C-alpha expression” (Isis Pharmaceuticals, Inc., priority 1999, dated 2001).

Test system: human PKA catalytic subunit C-alpha mRNA
Assay: Inhibition of PKA catalytic subunit C-alpha mRNA levels in oligonucleotide-treated cells, quantitative real-time PCR
Assay type: cell-based
Set-up: concentration or dose not given beside the values
Method: when cells reached 80% confluency, they were treated with oligonucleotide. For cells grown in 96-well plates, wells were washed once with 200 μL. OPTI-MEM™-1 reduced-serum medium (Gibco BRL) and then treated with 130 μL of OPTI-MEM™-1 containing 3.75 μg/mL LIPOFECTIN™ (Gibco BRL) and the desired concentration of oligonucleotide. After 4-7 hours of treatment, the medium was replaced with fresh medium. Cells were harvested 16-24 hours after oligonucleotide treatment.
Poly(A)+ mRNA was isolated according to Miura et al., Clin. Chem., 1996, 42, 1758-1764. Other methods for poly(A)+ mRNA isolation are taught in, for example, Ausubel, F. M. et al., Current Protocols in Molecular Biology, Volume 1, pp. 4.5.1-4.5.3, John Wiley & Sons, Inc., 1993. Briefly, for cells grown on 96-well plates, growth medium was removed from the cells and each well was washed with 200 μL cold PBS. 60 μL lysis buffer (10 mM Tris-HCl, pH 7.6, 1 mM EDTA, 0.5 M NaCl, 0.5% NP-40, 20 mM vanadyl-ribonucleoside complex) was added to each well, the plate was gently agitated and then incubated at room temperature for five minutes. 55 μL of lysate was transferred to Oligo d(T) coated 96-well plates (AGCT Inc., Irvine Calif.). Plates were incubated for 60 minutes at room temperature, washed 3 times with 200 μL of wash buffer (10 mM Tris-HCl pH 7.6, 1 mM EDTA, 0.3 M NaCl). After the final wash, the plate was blotted on paper towels to remove excess wash buffer and then air-dried for 5 minutes. 60 μL of elution buffer (5 mM Tris-HCl pH 7.6), preheated to 70° C. was added to each well, the plate was incubated on a 90° C. hot plate for 5 minutes, and the eluate was then transferred to a fresh 96-well plate.
Quantitat:ion of PKA catalytic subunit C-alpha mRNA levels was determined by real-time quantitative PCR using the ABI PRISM™ […] Sequence Detection System (PE-Applied Biosystems, Foster City, Calif.) according to manufacturer's instructions. This is a closed-tube, non-gel-based, fluorescence detection system which allows high-throughput quantitation of polymerase chain reaction (PCR) products in real-time. As opposed to standard PCR, in which amplification products are quantitated after the PCR is completed, products in real-time quantitative PCR are quantitated as they accumulate. This is accomplished by including in the PCR reaction an oligonucleotide probe that anneals specifically between the forward and reverse PCR primers, and contains two fluorescent dyes. A reporter dye (e.g., JOE, FAM, or VIC, obtained from either Operon Technologies Inc., Alameda, Calif. or PE-Applied Biosystems, Foster City, Calif.) is attached to the 5' end of the probe and a quencher dye (e.g., TAMRA, obtained from either Operon Technologies Inc., Alameda, Calif. or PE-Applied Biosystems, Foster City, Calif.) is attached to the 3' end of the probe. When the probe and dyes are intact, reporter dye emission is quenched by the proximity of the 3' quencher dye. During amplification, annealing of the probe to the target sequence creates a substrate that can be cleaved by the 5'-exonuclease activity of Taq polymerase. […] With each cycle, additional reporter dye molecules are cleaved from their respective probes, and the fluorescence intensity is monitored at regular intervals by laser optics built into the ABI PRISM™ 7700 Sequence Detection System. In each assay, a series of parallel reactions containing serial dilutions of mRNA from untreated control samples generates a standard curve that is used to quantitate the percent inhibition after antisense oligonucleotide treatment of test samples.
PCR reagents were obtained from PE-Applied Biosystems, Foster City, Calif. […]

[1] = Table 2, chimeric phosphorothioate 2'-MOE gapmers, averaged from two experiments
[2] = Table 1, phosphorothioate oligodeoxynucleotides, averages from two experiments

Substance | % Inhibition of PKA catalytic subunit C-alpha mRNA levels [1] [%] | % Inhibition of PKA catalytic subunit C-alpha mRNA levels [2] [%]
102668 (antisense GCTTGCAGGATGCGCTTTTC; chemistry not given here) [compound 102668] | 76 | 
102466 (antisense CGGCGGCGGCGTTGCCCATC; chemistry not given here) [compound 102466] |  | 79
102482 (antisense CCAGCATCACCCGCCCGAAG; chemistry not given here) [compound 102482] |  | 66
102584 (antisense CACACAGGTTGAATCGCCCC; chemistry not given here) [compound 102584] |  | 61
102640 (antisense GCGGCGGCGTTGCCCATCGC; chemistry not given here) [compound 102640] | 87 | 
102553 (antisense CGCTGCTGGGAGGAAAGACT; chemistry not given here) [compound 102553] |  | 52
102474 (antisense ATTCTTTCACGCTCTCCTGC; chemistry not given here) [compound 102474] |  | 3
102707 (antisense GGAGCAGCTGGTGTTTCTGT; chemistry not given here) [compound 102707] | 73 | 
102629 (antisense GCGTTGCCCATCGCGGCGGC; chemistry not given here) [compound 102629] | 79 | 
102478 (antisense CAAACTGATCCAAGTGGGCT; chemistry not given here) [compound 102478] |  | 73
102692 (antisense TCCTTCAAGTCAGAGCTGAA; chemistry not given here) [compound 102692] | 67 | 
102700 (antisense CTTCCTCATAGTCGTCAAAG; chemistry not given here) [compound 102700] | 44 | 
102530 (antisense GGAGCAGCTGGTGTTTCTGT; chemistry not given here) [compound 102530] |  | 39
102490 (antisense GCTTGCAGGATGCGCTTTTC; chemistry not given here) [compound 102490] |  | 66
102563 (antisense CCTTGAACCCCGGGCCGTGG; chemistry not given here) [compound 102563] |  | 56
102645 (antisense CGGCGGCGGCGTTGCCCATC; chemistry not given here) [compound 102645] | 84 | 
102436 (antisense TGGCTGCGGCCGGCGGCCCG; chemistry not given here) [compound 102436] |  | 49
102510 (antisense TCTGCGAAGAAGGGCGGGTA; chemistry not given here) [compound 102510] |  | 0
102604 (antisense TCGCGGCGGCGGCGGCCGGG; chemistry not given here) [compound 102604] | 70 | 

Substance | % Inhibition of PKA catalytic subunit C-alpha mRNA levels [1] [%] | % Inhibition of PKA catalytic subunit C-alpha mRNA levels [2] [%]
102458 (antisense GGCGGCGTTGCCCATCGCGG; chemistry not given here) [compound 102458] |  | 69
102446 (antisense TGCCCATCGCGGCGGCGGCG; chemistry not given here) [compound 102446] |  | 29
102688 (antisense TCTGCGAAGAAGGGCGGGTA; chemistry not given here) [compound 102688] | 52 | 
102657 (antisense CAAACTGATCCAAGTGGGCT; chemistry not given here) [compound 102657] | 73 | 
102731 (antisense TGCAGGGATGCCCTCCCCAC; chemistry not given here) [compound 102731] | 54 | 
102676 (antisense GAACATCTCCCCGCCGGGCA; chemistry not given here) [compound 102676] | 92 | 
102633 (antisense CGGCGTTGCCCATCGCGGCG; chemistry not given here) [compound 102633] | 81 | 
102543 (antisense GCTTCTCTTTAAAATGGATT; chemistry not given here) [compound 102543] |  | 16
102738 (antisense CAGGCAGCCCCTCCCCAGCA; chemistry not given here) [compound 102738] | 31 | 
102664 (antisense CTTCTGTTTGTCGAGGATCT; chemistry not given here) [compound 102664] | 76 | 
102498 (antisense GAACATCTCCCCGCCGGGCA; chemistry not given here) [compound 102498] |  | 13
102711 (antisense TTGGCGCTTCGTTCATTTGC; chemistry not given here) [compound 102711] | 60 | 
102538 (antisense AAGCAACCCACTGAACATGT; chemistry not given here) [compound 102538] |  | 38
102594 (antisense TGGCTGCGGCCGGCGGCCCG; chemistry not given here) [compound 102594] | 55 | 
102494 (antisense GTTGTCCTTGAAGGAGAACT; chemistry not given here) [compound 102494] |  | 0
102741 (antisense AGCACAAATGAGAAAGTGGG; chemistry not given here) [compound 102741] | 53 | 
102522 (antisense CTTCCTCATAGTCGTCAAAG; chemistry not given here) [compound 102522] |  | 32
102599 (antisense GCGGCGGGTGCTGGCTGCGG; chemistry not given here) [compound 102599] | 77 | 
102589 (antisense TAGTTTTCAAATATGTTTAC; chemistry not given here) [compound 102589] |  | 0
